Measured values: ChEMBL document CHEMBL1148853, “Studies on acyl pyrrolidine inhibitors of HCV RNA-dependent RNA polymerase to identify a molecule with replicon antiviral activity” (Bioorg Med Chem Lett, 2007)

Tests used:
[1] = Inhibition of HCV NS5B J4 delta 21 polymerase; parameters: species or system Hepacivirus hominis
Hepacivirus hominis = assay: Inhibition of HCV NS5B J4 delta 21 polymerase at 10 uM
[2] = Inhibition of HCV NS5B RB01 polymerase; parameters: species or system Hepacivirus hominis
Hepatitis C virus = assay: Inhibition of HCV replicon by cell based assay; type: functional, organism-based, Hepacivirus hominis
[3] = Permeability across artificial membrane by PAMPA assay; type: ADME; conditions: read-out: permeability

In the case of CC(C)C[C@@]1(C(=O)O)C[C@H](C(N)=O)[C@H](c2nccs2)N1C(=O)c1ccc(C(C)(C)C)cc1 (stereo in doubt; (-)32), the IC50 [1] is reported as 2.5 µM.

For CC(C)C[C@@]1(CO)C[C@H](C(=O)O)[C@H](c2cccs2)N1C(=O)c1ccc(C(F)(F)F)cc1, the inhibition (Hepacivirus hominis) was 0%.

CC(C)C[C@@]1(C(=O)O)C[C@H](C(=O)NS(=O)(=O)C(F)(F)F)[C@H](c2cccs2)N1C(=O)c1ccc(C(F)(F)F)cc1 showed an IC50 [1] of 0.2 µM.

CC(C)C[C@@]1(C(=O)O)C[C@H](C(=O)O)[C@H](c2cccs2)N1C(=O)c1ccc(C(C)(C)C)cc1 gave an IC50 [1] of 0.75 µM.

Work on CC(C)C[C@@]1(C(=O)O)C[C@H](C(N)=O)[C@H](c2cccs2)N1C(=O)c1ccc(C(F)(F)F)cc1 (stereo in doubt; (-)29) yielded an IC50 [1] of over 30 µM.

Compound CC(C)C[C@@]1(C(=O)O)C[C@H](C(N)=O)[C@H](c2cccs2)N1C(=O)c1ccc(C(F)(F)F)cc1 (stereo in doubt; 19) has an IC50 [1] of 4.4 µM.

Compound CC(C)C[C@@]1(C(=O)O)C[C@H](C(N)=O)[C@H](c2nccs2)N1C(=O)c1ccc(C(C)(C)C)cc1 (stereo in doubt; (+)32) has an IC50 [1] of 0.07 µM and an IC50 [2] of 3.8 µM.

Compound CC(C)C[C@@]1(C(=O)O)C[C@H](C(=O)O)[C@H](c2cccs2)N1C(=O)c1ccc(C(F)(F)F)cc1 (stereo in doubt; 1) has an IC50 [2] of 20 µM.

Work on CC(C)C[C@@]1(C(=O)Nc2ccccc2)C[C@H](C(=O)O)[C@H](c2cccs2)N1C(=O)c1ccc(C(F)(F)F)cc1 yielded an IC50 [1] of over 20 µM.

CC(C)C[C@@]1(C(=O)O)C[C@H](C(=O)NS(C)(=O)=O)[C@H](c2cccs2)N1C(=O)c1ccc(C(F)(F)F)cc1 showed an IC50 [1] of 0.23 µM.

In the case of CC(C)C[C@@]1(C(=O)O)C[C@H](C(N)=O)[C@H](c2cccs2)N1C(=O)c1ccc(C(C)(C)C)cc1, the IC50 [1] is reported as 0.33 µM.

COC(=O)[C@]1(CC(C)C)C[C@H](C(=O)O)[C@H](c2cccs2)N1C(=O)c1ccc(C(F)(F)F)cc1 gave an IC50 [1] of over 20 µM.

In the case of CC(C)C[C@@]1(C(=O)O)C[C@H](C(=O)O)[C@H](c2nccs2)N1C(=O)c1ccc(C(C)(C)C)cc1 (stereo in doubt; 28), the IC50 [1] is reported as 0.07 µM and the IC50 [2] is reported as 3.8 µM.

For CC(C)C[C@@]1(C(=O)O)C[C@H](C(=O)NS(=O)(=O)c2ccccc2)[C@H](c2nccs2)N1C(=O)c1ccc(C(C)(C)C)cc1, the IC50 [1] was 0.5 µM and the IC50 [2] was 3.15 µM.

For CC(C)C[C@@]1(C(=O)O)C[C@H](C(N)=O)[C@H](c2cccs2)N1C(=O)c1ccc(C(F)(F)F)cc1 (stereo in doubt; (+)29), the IC50 [1] was 2.23 µM.

Compound CC(C)C[C@@]1(C(=O)NCc2ccccc2)C[C@H](C(=O)O)[C@H](c2cccs2)N1C(=O)c1ccc(C(F)(F)F)cc1 has an IC50 [1] of over 20 µM.

For CNC(=O)[C@H]1C[C@@](CC(C)C)(C(=O)O)N(C(=O)c2ccc(C(C)(C)C)cc2)[C@H]1c1nccs1, the IC50 [2] was 22 µM.

Compound CC(C)C[C@@]1(C(=O)O)C[C@H](C(=O)Nc2ccccc2)[C@H](c2nccs2)N1C(=O)c1ccc(C(C)(C)C)cc1 (stereo in doubt; 41) has an IC50 [1] of 0.16 µM, an IC50 [2] of 3.1 µM and an IC50 (Hepatitis C virus; Hepatitis C virus) of 45 µM.

Work on CC(C)C[C@@]1(C(N)=O)C[C@H](C(=O)O)[C@H](c2cccs2)N1C(=O)c1ccc(C(F)(F)F)cc1 yielded an IC50 [1] of 8.1 µM.

CC(C)C[C@@]1(C(=O)OCc2ccccc2)C[C@H](C(=O)O)[C@H](c2cccs2)N1C(=O)c1ccc(C(F)(F)F)cc1 gave an IC50 [1] of over 20 µM.

CC(C)C[C@@]1(C(=O)NC(C)C)C[C@H](C(=O)O)[C@H](c2cccs2)N1C(=O)c1ccc(C(F)(F)F)cc1 showed an IC50 [1] of over 20 µM.

Compound CC(C)C[C@@]1(C(=O)O)C[C@H](C(=O)O)[C@H](c2cccs2)N1C(=O)c1ccc(C(F)(F)F)cc1 (stereo in doubt; (+)-1) has an IC50 [1] of 0.3 µM and an IC50 [2] of 11.9 µM.

CC(C)C[C@@]1(C(=O)O)C[C@H](C(=O)Nc2ccccc2)[C@H](c2nccs2)N1C(=O)c1ccc(C(C)(C)C)cc1 (stereo in doubt; (+)41) showed an IC50 [2] of 0.5 µM and an IC50 (Hepatitis C virus) of 30 µM.

For CCNC(=O)[C@]1(CC(C)C)C[C@H](C(=O)O)[C@H](c2cccs2)N1C(=O)c1ccc(C(F)(F)F)cc1, the IC50 [1] was over 20 µM.

COC(=O)[C@H]1C[C@@](CC(C)C)(C(=O)O)N(C(=O)c2ccc(C(F)(F)F)cc2)[C@H]1c1cccs1 gave an IC50 [1] of over 20 µM.

With CC(C)C[C@@]1(C(=O)O)C[C@H](C(=O)O)[C@H](c2nccs2)N1C(=O)c1ccc(C(C)(C)C)cc1 (stereo in doubt; (-)28) the IC50 [1] was 2.36 µM.

CC(C)C[C@@]1(C(=O)O)C[C@H](CO)[C@H](c2cccs2)N1C(=O)c1ccc(C(F)(F)F)cc1 gave an inhibition (Hepacivirus hominis) of 51%.

COC(=O)[C@H]1C[C@@](CC(C)C)(C(=O)OC)N(C(=O)c2ccc(C(F)(F)F)cc2)[C@H]1c1cccs1 showed an IC50 [1] of over 20 µM.

For CC(C)C[C@@]1(C(=O)O)C[C@H](C(=O)NCc2ccccc2)[C@H](c2nccs2)N1C(=O)c1ccc(C(C)(C)C)cc1, the IC50 [1] was 8.29 µM and the IC50 [2] was 68 µM.

Compound CC(C)C[C@@]1(C(=O)O)C[C@H](C(=O)O)[C@H](c2nccs2)N1C(=O)c1ccc(C(C)(C)C)cc1 (stereo in doubt; (+)28) has an IC50 [1] of 0.03 µM and an IC50 [2] of 2.1 µM.

For CNC(=O)[C@]1(CC(C)C)C[C@H](C(=O)O)[C@H](c2cccs2)N1C(=O)c1ccc(C(F)(F)F)cc1, the IC50 [1] was over 20 µM.

For CC(C)C[C@@]1(C(=O)O)C[C@H](C(=O)NS(C)(=O)=O)[C@H](c2nccs2)N1C(=O)c1ccc(C(F)(F)F)cc1, the IC50 [1] was 0.41 µM.

In the case of CC(C)C[C@@]1(C(=O)O)C[C@H](C(=O)NS(C)(=O)=O)[C@H](c2nccs2)N1C(=O)c1ccc(C(C)(C)C)cc1, the IC50 [1] is reported as 0.04 µM and the Papp [3] is reported as under 0.03 ×10⁻⁶ cm/s.

With CC(C)C[C@@]1(C(=O)O)C[C@H](C(=O)NS(=O)(=O)Cc2ccccc2)[C@H](c2nccs2)N1C(=O)c1ccc(C(C)(C)C)cc1 the IC50 [1] was 0.55 µM and the IC50 [2] was 4.23 µM.

Compound CC(C)C[C@@]1(C(=O)O)C[C@H](C(=O)Nc2ccccc2)[C@H](c2nccs2)N1C(=O)c1ccc(C(C)(C)C)cc1 (stereo in doubt; (-)41) has an IC50 [2] of over 100 µM and a CC50 (Hepatitis C virus; Hepatitis C virus) of over 200 µM.

For CC(C)C[C@@]1(C(=O)O)C[C@H](C(N)=O)[C@H](c2nccs2)N1C(=O)c1ccc(C(C)(C)C)cc1 (stereo in doubt; 32), the IC50 [1] was 0.08 µM and the IC50 [2] was 4.4 µM.

CC(C)C[C@@]1(C(=O)O)C[C@H](C(=O)O)[C@H](c2nccs2)N1C(=O)c1ccc(C(F)(F)F)cc1 gave an IC50 [1] of 0.45 µM.

CC(C)C[C@@]1(C(=O)O)C[C@H](C(N)=O)[C@H](c2nccs2)N1C(=O)c1ccc(C(F)(F)F)cc1 gave an IC50 [1] of 2.05 µM.

Compound CC(C)C[C@@]1(C(=O)O)C[C@H](C(=O)O)[C@H](c2cccs2)N1C(=O)c1ccc(C(F)(F)F)cc1 (stereo in doubt; (-)1) has an IC50 [1] of 18 µM.
